pIC50: −log10 of the molar value.
Experiments:
COX-1 [1] = target: T1, COX-1 (Homo sapiens, UniProt P23219); experiment: microsomal enzyme assay, percent inhibition at […] (marginal, […], at […]); type: biochemical; parameters: gene PTGS1; recombinant human COX-1, microsomes from transfected Sf9 cells
COX-1 [2] = target: T1, COX-1; parameters: gene PTGS1
COX-1 [3] = target: T1, COX-1; experiment: microsomal enzyme assay, percent inhibition at […] (only […] at […]); type: cell-free; parameters: gene PTGS1; recombinant human COX-1, microsomes from transfected Sf9 cells

T1 sequence (P23219 24-599): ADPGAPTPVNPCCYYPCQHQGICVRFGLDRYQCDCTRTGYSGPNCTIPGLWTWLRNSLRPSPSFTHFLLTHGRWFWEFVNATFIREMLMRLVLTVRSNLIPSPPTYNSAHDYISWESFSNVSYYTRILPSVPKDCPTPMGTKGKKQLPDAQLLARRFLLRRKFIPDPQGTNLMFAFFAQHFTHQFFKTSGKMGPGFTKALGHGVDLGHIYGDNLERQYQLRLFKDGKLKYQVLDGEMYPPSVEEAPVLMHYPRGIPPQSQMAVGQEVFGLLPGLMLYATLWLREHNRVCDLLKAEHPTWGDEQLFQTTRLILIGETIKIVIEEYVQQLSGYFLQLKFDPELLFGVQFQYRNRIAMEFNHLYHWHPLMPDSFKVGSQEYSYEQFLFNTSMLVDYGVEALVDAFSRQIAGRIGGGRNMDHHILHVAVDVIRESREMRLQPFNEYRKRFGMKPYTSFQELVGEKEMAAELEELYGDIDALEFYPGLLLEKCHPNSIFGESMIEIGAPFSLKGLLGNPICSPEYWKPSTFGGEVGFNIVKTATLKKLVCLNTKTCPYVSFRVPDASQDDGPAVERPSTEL

Work on CC(C)(Oc1ccc(Cl)cc1)C(=O)O [clofibric acid] yielded an inhibition at 250 µM (COX-1 [1]) of 14%.
CC(C)(Oc1ccc(C(=O)c2ccc(Cl)cc2)cc1)C(=O)O [fenofibric acid] was tested, and the pIC50 (COX-1 [2]) was 3.02.
For Cc1ccc(C)c(OCCCC(C)(C)C(=O)O)c1 [gemfibrozil], the inhibition at 250 µM (COX-1 [3]) was 18%.

From publication PMC4298667, “Chemical and protein structural basis for biological crosstalk between PPARα and COX enzymes” (Journal of Computer-Aided Molecular Design, 2014)
